Data on one compound can be found in article PMC11500415, “Chemical inhibition of stomatal differentiation by perturbation of the master-regulatory bHLH heterodimer via an ACT-Like domain” (Nature Communications, 2024).

Where “and” joins values, the source holds several entries; their conditions need not be identical. Equal entries are not always repeated.

Data set [1] in a line: Stability in aqueous conditions by LC/MS. In kind it is physicochemical. The method, then: Next, to directly address the stability of Stomidazolone in the aqueous condition we used for our bioassays, we performed liquid chromatography-mass spectrometry (LC/MS) (Supplementary Fig. 4). Stomidazolone was incubated in the 1/2 MS liquid medium (pH 5.7) at room temperature for 48 hours. […] Additionally, we tested Stomidazolone’s stability in phosphate buffer (pH 7.0).
Stomidazolone in 1/2 MS liquid media (pH 5.7) or phosphate buffer (pH 7.0) was detected by LC (Agilent 1200, Agilent Technologies, Santa Clara, USA) coupled to a single quadrupole mass spectrometer (Agilent 6130) equipped with an APCI-ES source. For the stability assay of Stomidazolone, the analytical samples were prepared as follows: 100 μL 5 mM Stomidazolone in DMSO was diluted with 900 μL 1/2MS (pH5.7) or 50 mM Phosphate buffer (pH 7.0). The Stomidazolone solutions were incubated at room temperature with rotating. At 0 or 48 hr after incubation, the 10 μL of solution were collected, diluted with water: acetonitrile;= 50:50, and applied to LC/MS. […] The mobile phase consisted of 5 mM ammonium formate: acetonitrile = 80:20 at a flow rate of 0.6 mL/min. in isocratic mode, and detected by mass spectrometry (MS). […] The electrospray ionization mass spectra (ESI-MS) recorded in the mass-to-charge ratio range from m/z 80–1000 was collected. […]

The next data set deals with T1, SCRM-MUTE heterodimer (Arabidopsis thaliana, UniProt Q9M8K6).
T1 construct: expressed in transfected cells; host or cells: yeast strain AH109
T1 sequence (Q9M8K6 1-202): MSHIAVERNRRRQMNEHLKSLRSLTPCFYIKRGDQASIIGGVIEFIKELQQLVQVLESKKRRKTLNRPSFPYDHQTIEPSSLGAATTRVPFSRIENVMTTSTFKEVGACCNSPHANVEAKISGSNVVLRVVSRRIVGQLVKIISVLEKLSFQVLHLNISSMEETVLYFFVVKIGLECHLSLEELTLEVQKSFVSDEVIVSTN
As to the kind of experiment: Y2H growth and quantitative α-galactosidase assay. As to conditions: for a-galactosidase: yeast MUTE+SCRM, individual replicates, listed as AYSJ929. The format is cell-based.

The next data set deals with T2, SCRM-SPCH heterodimer (Arabidopsis thaliana, UniProt Q700C7).
T2 construct: truncated SPCH and FAMA proteins lacking their N-terminal domain were used in yeast; expressed in transfected cells; host or cells: yeast strain AH109
T2 sequence (Q700C7 98-364 limits assumed): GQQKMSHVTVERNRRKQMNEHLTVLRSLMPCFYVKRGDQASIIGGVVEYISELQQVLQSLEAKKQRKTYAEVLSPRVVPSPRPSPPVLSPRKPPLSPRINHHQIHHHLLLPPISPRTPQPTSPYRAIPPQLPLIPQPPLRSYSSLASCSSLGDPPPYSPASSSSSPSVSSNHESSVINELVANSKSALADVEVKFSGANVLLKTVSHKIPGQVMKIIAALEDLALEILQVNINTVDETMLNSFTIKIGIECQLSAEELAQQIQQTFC
As to the kind of experiment: Y2H growth and quantitative α-galactosidase assay. As to conditions: for a-galactosidase: yeast SPCH∆N+SCRM, individual replicates, listed as AYSJ929. In kind it is cell-based.

For the compound `O=C1C(c2ccccc2)=NC(NS(=O)(=O)c2ccccc2)(c2ccccc2)N1S(=O)(=O)c1ccccc1` (stereo not drawn) [Stomidazolone], the “stability in 1/2 MS liquid medium (LC/MS)” value in data set [1] (pH 5.7, room temperature, 48 hours) is “no lzx103 peak (2.13 min) was detected”. The “stability in phosphate buffer (LC/MS)” value in data set [1] (pH 7.0, room temperature, 48 h) is “did not detect the degradation”. Further, the “effect in quantitative α-galactosidase assay” value on SCRM-MUTE heterodimer (0, 10, 50, 100 μM) was “inhibits these stomatal bHLH heterodimers in a dose-dependent manner”; on SCRM-SPCH heterodimer (0, 10, 50, 100 μM) it was “slightly less impact”. The “effect on association in Y2H growth assay” value on SCRM-MUTE heterodimer (50 μM, 1 mM 3-AT) is reported as “diminishes”; at SCRM-SPCH heterodimer (50 μM, 1 mM 3-AT, N-terminally truncated SPCH) it was “diminishes”. Also, the a-galactosidase was 6.11 milliunits /(ml x cell) and 7.57 milliunits /(ml x cell) and 6.75 milliunits /(ml x cell) on SCRM-MUTE heterodimer (10 µM); 4.46 milliunits /(ml x cell) and 5.23 milliunits /(ml x cell) and 6.35 milliunits /(ml x cell) on SCRM-MUTE heterodimer (50 µM); 5.40 milliunits /(ml x cell) and 3.71 milliunits /(ml x cell) and 5.42 milliunits /(ml x cell) at SCRM-MUTE heterodimer (100 µM); 5.51 milliunits /(ml x cell) and 5.69 milliunits /(ml x cell) and 5.47 milliunits /(ml x cell) at SCRM-SPCH heterodimer (10 µM); 5.02 milliunits /(ml x cell) and 5.49 milliunits /(ml x cell) and 5.63 milliunits /(ml x cell) on SCRM-SPCH heterodimer (50 µM); 5.62 milliunits /(ml x cell) and 5.13 milliunits /(ml x cell) on SCRM-SPCH heterodimer (100 µM).
